This note sets out measurements from the supplement of paper PMC10820928.

The structures appear in SMILES notation. ± gives the standard deviation of the averaged measurements.

This test deals with Danio rerio embryo. Nature of the test: benchmark concentration, MalformedAny+Mort@120 (percent of embryos dead or malformed at 120 hpf); higher = less toxic. The following applies: exposure window: 4-6 to 120 hpf. On the procedure:
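Single zebrafish embryos in 96-well plates (200 µL; 0.5% DMSO vehicle) were exposed from about 4–6 hpf to 120 hpf at 7 or more concentrations up to 100 µM or the solubility limit, one plate per replicate. Each lab used its in-house protocol: Lab A used AB embryos in E3 with chorion on and daily renewal; Lab B used Tropical 5D embryos in E2, dechorionated, static; Lab C used AB embryos in E3 with chorion on, static. The percentage of dead or malformed embryos at 120 hpf was fitted per plate (positive control: per week) by bootstrap Curvep to give a benchmark concentration (BMC); inactive substances are set to the highest tested concentration, BMCs at the lowest tested concentration are floors.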

[1] abbreviates: laboratory protocol: Lab A: static renewal, chorionated (SR-C), AB strain, E3.
Setting [2] is: laboratory protocol: Lab C: static, chorionated (S-C), AB strain, E3.
Where [3] appears, read: laboratory protocol: Lab B: static, dechorionated (S-DC), Tropical 5D strain, E2.

As to `CC(C)(C)[C@H](O)[C@H](Cc1ccc(Cl)cc1)n1cncn1` (racemic) [Paclobutrazol], the benchmark concentration reads like this: under setting [1], 0.339 ± 0.16 µM; under setting [2], 23.1 ± 21 µM.

`CC(C)(c1cc(Br)c(O)c(Br)c1)c1cc(Br)c(O)c(Br)c1` [3,3',5,5'-Tetrabromobisphenol A]: the benchmark concentration reads like this: under setting [1], 1.39 µM; under setting [3], 2.97 ± 0.81 µM; under setting [2], 4.25 ± 0.23 µM.

In the case of `Nc1ccc(Cl)c(Cl)c1` [3,4-Dichloroaniline], the benchmark concentration was 7.8 ± 0.11 µM under setting [1], < 2 µM under setting [3] and 14 ± 4.4 µM under setting [2].

As to `CCCc1cc(=O)[nH]c(=S)[nH]1` [6-Propyl-2-thiouracil], the benchmark concentration is, setting by setting: under setting [1], > 100 µM; under setting [3], > 100 µM.

`CC[C@H](C)[C@H]1O[C@]2(C=C[C@@H]1C)C[C@@H]1C[C@@H](C/C=C(\C)[C@@H](O[C@H]3C[C@H](OC)[C@@H](O[C@H]4C[C@H](OC)[C@@H](O)[C@H](C)O4)[C@H](C)O3)[C@@H](C)/C=C/C=C3\CO[C@@H]4[C@H](O)C(C)=C[C@@H](C(=O)O1)[C@]34O)O2.CO[C@H]1C[C@H](O[C@H]2[C@H](C)O[C@@H](O[C@@H]3/C(C)=C/C[C@@H]4C[C@@H](C[C@]5(C=C[C@H](C)[C@@H](C(C)C)O5)O4)OC(=O)[C@@H]4C=C(C)[C@@H](O)[C@H]5OC/C(=C\C=C\[C@@H]3C)[C@]54O)C[C@@H]2OC)O[C@@H](C)[C@@H]1O` [Abamectin]: the benchmark concentration under setting [2] was determined as 0.436 ± 0.24 µM.

In the case of `CC=O` [Acetaldehyde], the benchmark concentration is, setting by setting: under setting [1], > 100 µM; under setting [3], > 100 µM; under setting [2], > 100 µM.

As to `CNC(=O)O/N=C/C(C)(C)SC` [Aldicarb], the benchmark concentration runs as follows: under setting [1], 0.926 ± 0.4 µM; under setting [3], 2.27 ± 0.83 µM; under setting [2], 1.94 ± 0.48 µM.

On to `CC(=O)Oc1ccccc1C(=O)O` [Aspirin], for which the benchmark concentration by setting is: under setting [3], > 100 µM; under setting [2], 24.6 ± 18 µM.

Take `CCNc1nc(Cl)nc(NC(C)C)n1` [Atrazine]: the benchmark concentration runs as follows: under setting [1], 49 ± 5.9 µM; under setting [3], > 100 µM; under setting [2], > 100 µM.

On to `CCC[CH2][Sn]([CH2]CCC)([CH2]CCC)[O][Sn]([CH2]CCC)([CH2]CCC)[CH2]CCC` [Bis(tributyltin)oxide], for which the benchmark concentration is, setting by setting: under setting [1], 0.0463 ± 0.0031 µM; under setting [2], 1.08 ± 0.52 µM.

Regarding `CC(C)(c1ccc(O)cc1)c1ccc(O)cc1` [Bisphenol A], the benchmark concentration reads like this: under setting [1], 13 ± 2.4 µM; under setting [3], 38.5 ± 2.8 µM; under setting [2], 21.8 ± 12 µM.

As to `Cn1c(=O)c2c(ncn2C)n(C)c1=O` [Caffeine], the benchmark concentration is, setting by setting: under setting [1], > 100 µM; under setting [3], > 100 µM.

With `CCOP(=O)(OCC)Oc1nc(Cl)c(Cl)cc1Cl` [Chlorpyrifos oxon], the benchmark concentration came out at 1.69 ± 0.43 µM under setting [3] and 0.2 ± 0.14 µM under setting [2].

On to `CCOP(=S)(OCC)Oc1nc(Cl)c(Cl)cc1Cl` [Chlorpyrifos], for which the benchmark concentration under setting [1] was 0.879 ± 0.45 µM, the benchmark concentration under setting [3] was determined as 63.7 ± 35 µM and the benchmark concentration under setting [2] amounted to 45.7 µM.

`c1ccc2c(c1)ccc1cc3c(ccc4ccccc43)cc12` [Dibenz(a,h)anthracene]: the benchmark concentration runs as follows: under setting [3], > 64 µM; under setting [2], > 100 µM.

For `CCCCOC(=O)c1ccccc1C(=O)OCCCC` [Dibutyl phthalate], the benchmark concentration reads like this: under setting [1], 1.28 ± 0.24 µM; under setting [3], 4.16 ± 0.31 µM; under setting [2], 38.2 ± 13 µM.

As to `CC/C(=C(/CC)c1ccc(O)cc1)c1ccc(O)cc1` [Diethylstilbestrol], the benchmark concentration is, setting by setting: under setting [1], 0.547 ± 0.03 µM; under setting [3], 3.07 ± 0.69 µM; under setting [2], 3.37 ± 1.3 µM.

As for `CCCCOC(=O)C(C)Oc1ccc(Oc2ccc(C(F)(F)F)cn2)cc1` (stereo not drawn) [Fluazifop-butyl], the benchmark concentration is, setting by setting: under setting [1], 2.6 ± 1.5 µM; under setting [3], 3.5 ± 1 µM; under setting [2], 53.8 ± 10 µM.

With `C[Si](Cn1cncn1)(c1ccc(F)cc1)c1ccc(F)cc1` [Flusilazole], the benchmark concentration by setting is: under setting [1], 1.41 ± 0.027 µM; under setting [3], 6.04 ± 1.4 µM; under setting [2], 11.6 ± 5.1 µM.

`NC(=O)NO` [Hydroxyurea]: the benchmark concentration reads like this: under setting [1], > 100 µM; under setting [3], > 100 µM.

In the case of `CC(C)NC(=O)N1CC(=O)N(c2cc(Cl)cc(Cl)c2)C1=O` [Iprodione], the benchmark concentration reads like this: under setting [1], 11.7 ± 3.8 µM; under setting [3], 62.3 ± 23 µM; under setting [2], 35.7 ± 18 µM.

With `Cl[C@H]1[C@H](Cl)[C@@H](Cl)[C@@H](Cl)[C@H](Cl)[C@H]1Cl` [Lindane], the benchmark concentration was determined as 1.24 ± 0.5 µM under setting [1], 35.6 ± 6.7 µM under setting [3] and 9.25 ± 4.2 µM under setting [2].

`CON(C)C(=O)Nc1ccc(Cl)c(Cl)c1` [Linuron] returned a benchmark concentration under setting [1] of 4.78 ± 0.21 µM, a benchmark concentration under setting [3] of 19.5 ± 9.7 µM and a benchmark concentration under setting [2] of 29.7 ± 14 µM.

For `Oc1c(Cl)c(Cl)c(Cl)c(Cl)c1Cl` [Pentachlorophenol], the benchmark concentration is, setting by setting: under setting [1], 0.257 ± 0.15 µM; under setting [3], < 1 µM; under setting [2], 0.818 ± 0.49 µM.

Take `CCOP(=S)(OCC)SCSCC` [Phorate]: the benchmark concentration was 2.53 ± 1.7 µM under setting [1] and > 100 µM under setting [3].

As to `CC(C)c1cccc(C(C)C)c1O` [Propofol], the benchmark concentration was 0.502 ± 0.076 µM under setting [1] and > 100 µM under setting [3].

Take `c1cc2ccc3cccc4ccc(c1)c2c34` [Pyrene]: the benchmark concentration turned out to be 3.81 ± 1.2 µM under setting [1] and 50.5 ± 25 µM under setting [3].

`CC(COc1ccc(Oc2ccccc2)cc1)Oc1ccccn1` (stereo not drawn) [Pyriproxyfen] had a benchmark concentration under setting [1] of 4.41 ± 1.7 µM and a benchmark concentration under setting [3] of 65.4 ± 16 µM.

Consider `Oc1cccc(O)c1` [Resorcinol], for which the benchmark concentration is > 100 µM under setting [1], > 100 µM under setting [3] and > 100 µM under setting [2].

As to `C=C(C)[C@H]1Cc2c(ccc3c2O[C@@H]2COc4cc(OC)c(OC)cc4[C@@H]2C3=O)O1` [Rotenone], the benchmark concentration by setting is: under setting [3], < 1 µM; under setting [2], 0.194 ± 0.15 µM.

For the molecule `CCCC(CCC)C(=O)O` [Sodium valproate], the benchmark concentration was > 100 µM under setting [3] and 4.12 µM under setting [2].

As for `O=C1CCC(N2C(=O)c3ccccc3C2=O)C(=O)N1` (stereo not drawn) [Thalidomide], the benchmark concentration was > 100 µM under setting [1] and > 100 µM under setting [3].

Regarding `CC(C)(C)C(=O)C(Oc1ccc(Cl)cc1)n1cncn1` (stereo not drawn) [Triadimefon], the benchmark concentration by setting is: under setting [1], 1.51 ± 0.11 µM; under setting [3], 7.61 ± 4.6 µM; under setting [2], 6.93 ± 6.8 µM.

Molecule `Oc1cc(Cl)ccc1Oc1ccc(Cl)cc1Cl` [Triclosan] had a benchmark concentration under setting [1] of 1.2 ± 0.34 µM, a benchmark concentration under setting [3] of 3.62 ± 0.7 µM and a benchmark concentration under setting [2] of 7.86 ± 5.5 µM.

Turning to `O=P(Oc1ccccc1)(Oc1ccccc1)Oc1ccccc1` [Triphenyl phosphate], the benchmark concentration reads like this: under setting [1], 0.879 ± 0.45 µM; under setting [3], 4.35 ± 0.61 µM; under setting [2], 30 ± 15 µM.

Regarding `O=P(OC(CCl)CCl)(OC(CCl)CCl)OC(CCl)CCl` [Tris(1,3-dichloro-2-propyl) phosphate], the benchmark concentration runs as follows: under setting [1], 2.2 ± 0.24 µM; under setting [3], 6.94 ± 2.6 µM; under setting [2], 15.9 ± 3.1 µM.

As to `CCCC(CCC)C(=O)O` [Valproic acid], under setting [2], the benchmark concentration turned out to be 6 ± 7.4 µM.

With `CN(C)C(=S)[S-].CN(C)C(=S)[S-].[Zn+2]` [Ziram], under setting [3], the benchmark concentration was < 1 µM.
